Laboratory results published in ChEMBL document CHEMBL6153166, “Innovative Protein Degraders for Targeted Cancer and Viral Therapy” (ACS Med Chem Lett, 2025).

biological target: Sequestosome-1 (Homo sapiens, UniProt Q13501); test: Inhibition of biotin-labeled Halo/His-tagged p62 (unknown origin) incubated for 30 mins by AlphaLISA competition assay
Sequence (Q13501 whole entry): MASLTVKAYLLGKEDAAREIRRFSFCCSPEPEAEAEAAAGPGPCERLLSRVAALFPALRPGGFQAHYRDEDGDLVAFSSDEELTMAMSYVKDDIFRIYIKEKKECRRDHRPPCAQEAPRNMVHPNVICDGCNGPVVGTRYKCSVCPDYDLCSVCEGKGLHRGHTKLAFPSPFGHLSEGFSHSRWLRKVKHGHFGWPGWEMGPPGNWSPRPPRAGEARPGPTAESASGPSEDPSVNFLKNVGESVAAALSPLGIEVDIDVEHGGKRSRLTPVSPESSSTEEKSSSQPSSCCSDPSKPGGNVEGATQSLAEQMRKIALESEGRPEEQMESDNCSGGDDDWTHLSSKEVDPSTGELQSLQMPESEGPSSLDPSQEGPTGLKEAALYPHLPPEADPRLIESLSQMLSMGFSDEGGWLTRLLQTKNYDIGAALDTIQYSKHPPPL

Row | SMILES | IC50
1 | CCc1cc2c(cc1N1CCN(C(=O)CCCN3C[C@H](NC(=O)[C@@H](N)CCCn4ccnc4N)C(C)(C)C3)CC1)C(C)(C)C1Nc3cc(C#N)ccc3C1C2=O (stereo partly specified) | ≤ 1500 nM
2 | CCc1cc2c(cc1N1CCN(C(=O)CCCN3CCC(C)(C)C(NC(=O)[C@@H](N)CCCn4ccnc4N)C3)CC1)C(C)(C)C1Nc3cc(C#N)ccc3C1C2=O (stereo partly specified) | ≤ 1500 nM
3 | CCc1cc2c(cc1N1CCN(C(=O)CCCN3C[C@H](NC(=O)[C@@H](N)CCCc4cccnc4N)C(C)(C)C3)CC1)C(C)(C)C1Nc3cc(C#N)ccc3C1C2=O (stereo partly specified) | ≤ 1500 nM
4 | CCc1cc2c(cc1N1CCN(C(=O)CCCN3C[C@H](NC(=O)[C@@H](N)CCCc4cncnc4N)C(C)(C)C3)CC1)C(C)(C)C1Nc3cc(C#N)ccc3C1C2=O (stereo partly specified) | ≤ 1500 nM

Further lines, results first:

Row | IC50 | SMILES
5 | ≤ 1500 nM | CCc1cc2c(cc1N1CCN(C(=O)CCCN3CC[C@@H](NC(=O)[C@@H](N)CCCn4ccnc4N)C3)CC1)C(C)(C)C1Nc3cc(C#N)ccc3C1C2=O (stereo partly specified)
6 | ≤ 1500 nM | CCc1cc2c(cc1N1CCN(C(=O)CCCN3C[C@H](NC(=O)[C@@H](N)CCCn4ccnc4N)C4(CC4)C3)CC1)C(C)(C)C1Nc3cc(C#N)ccc3C1C2=O (stereo partly specified)
